From patent publication US10399971B2, “Compound for treating or preventing hyperuricemia or gout” (JIANGSU ATOM BIOSCIENCE AND PHARMACEUTICAL CO., LTD., priority 2015, dated 2019)

How the values were obtained:
hURAT1 = target: T1, hURAT1 (Homo sapiens, UniProt Q96S37); assay: Inhibition assay of uric acid transport in HEK293-hURAT1 transfection cell line; assay type: cell-based; details: 500 nM; HEK293-hURAT1 transfection cell line; 14C-uric acid; average of three tests; 0.5 µM
T1 sequence (Q96S37 1-553): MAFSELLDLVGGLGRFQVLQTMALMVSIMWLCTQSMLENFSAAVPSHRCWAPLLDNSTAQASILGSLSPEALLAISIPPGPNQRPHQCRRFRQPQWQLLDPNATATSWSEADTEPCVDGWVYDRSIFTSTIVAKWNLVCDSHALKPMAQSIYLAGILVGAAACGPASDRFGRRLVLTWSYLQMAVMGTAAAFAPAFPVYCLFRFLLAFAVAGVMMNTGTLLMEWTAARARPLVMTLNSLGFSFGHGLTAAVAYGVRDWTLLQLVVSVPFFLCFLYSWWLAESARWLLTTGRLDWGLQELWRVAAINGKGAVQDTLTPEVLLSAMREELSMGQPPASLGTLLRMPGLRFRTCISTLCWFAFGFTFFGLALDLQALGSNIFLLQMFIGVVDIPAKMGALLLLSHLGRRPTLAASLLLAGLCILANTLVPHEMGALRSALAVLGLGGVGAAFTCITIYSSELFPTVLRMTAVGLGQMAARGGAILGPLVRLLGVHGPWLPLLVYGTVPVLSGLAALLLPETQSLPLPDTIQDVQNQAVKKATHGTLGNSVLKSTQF
Description: 2.1 Construction of a HEK293 stable cell line with high expression of hURAT1: The plasmid pCMV6-hURAT1 was transfected into HEK293 cells, then the stable strain was obtained by the G418 (final concentration 500 μg/mL) resistance screening, which is the high expression of hURAT1 transporter membrane protein.
2.2 To a coated 24-well plate was added 200 μL of 0.1 mg/mL poly-lysine per well and the plate was left overnight. Poly-lysine was removed from wells. The wells were cleaned thoroughly with aseptic water and dried for use.
2.3 To the above coated 24 well plate was added HEK293-hURAT1 stable cells (2×10^5 cells per well). The cells was cultured at 37° C. under 5% CO2 for 3 days.
The solution was fully mixed to give HBSS buffer (pH value: 7.4). The buffer was stored at −20° C.
2.5 The HBSS buffer was warmed to 37° C. in a water bath. Washed cells with HBSS twice, added 160 μL of HBSS and 20 μL test compound per well. The final concentration of tested compound per well is 500 nM. The blank control well contains only 180 μL of HBSS without tested compound. The plate was placed at room temperature for 30 min.
2.6 To each well was added 20 μL of 50 μM ^14C-Uric acid. The plate was placed at room temperature for 20 min.
2.7 The solution in each well was removed and the cells in each well were washed with pre-cooled HBSS buffer. To each well was added 0.2 M NaOH to dissolve the cells. The solution containing cell fragments was collected and the right amount of scintillation liquid was added.
The formula for calculating the inhibitory rate of uric acid transport for compounds was shown as below: […]

hyperuricemia mice = assay: Uric acid excretion test in hyperuricemia mice; assay type: in vivo, Kunming mice; details: 15 mg/kg oral
Description: Species: Kingming mice (Clean Level); body weights: 25 to 30 g; ages: 4 to 5 weeks; sex: male. These mice were purchased from Shanghai SLAC Laboratory Animal Co., Ltd. Certificate No.: SCXK (HU) 2012-2002. Animal quality certificate number: 2015000522173.
A certain amount of adenine and yeast extract powder was weighted and a certain amount of double distilled water was added. The mixture was stirred at about 60° C. for 40 min to give a suspension, which the concentration of yeast extract is 0.6 g/mL and the concentration of adenine is 12 mg/mL.
A suspension of 20 mg/mL potassium oxonate was prepared by mixing a certain amount of potassium oxonate with 0.5% CMC-Na solution before use.
Male Kunming mice were randomly divided into four groups: blank control group, model group, compound 74 group, and benzbromarone group. Each group has six mice. All mice fasted 2 to 3 h before use. The model group, benzbromarone group, and compound 74 group were orally given a suspension of yeast extract and adenine prepared above to reach the final dosage of 10 g/kg (body weight) of yeast extract and 200 mg/kg (body weight) of adenine, respectively. The blank control group was only given same volume of normal saline orally. After 2.5 h, all mice in compound 74 group and benzbromarone group were given 10 mL/kg of suspension of compound 74 (1.5 mg/mL) and 10 mL/kg of suspension of benzbromarone (1.5 mg/mL), respectively. The blank control group and model group were orally given same volume of 0.5% CMC-Na solution. All animals were treated in the same way for seven days by using administration methods described above. On the last day, after administration of a suspension of yeast extract and adenine for the model group, compound 74 group, and benzbromarone group, all mice in these three groups were given 12.5 mL/kg of potassium oxonate (20 mg/mL) by i.p. The blank control was only given same volume of 0.5% CMC-Na solution by i.p. After 30 min, compound 74 and benzbromarone were administrated orally to the mice at same dosages as above in compound 74 group and benzbromarone group, respectively. The blank control group and model group were orally given same volume of 0.5% CMC-Na solution.
Collection of urine samples: All mice were placed in metabolic cages with normal diet individually after giving test compounds on the last day. 24 h urine was collected and the urine volume was measured. The urine was centrifugated at 3000 rpm for 20 min and the supernatant was collected.
Detection of the concentration of uric acid of mice urine samples: uric acid concentration in samples was detected by using uric acid assay kit (phosphotungstic acid method) followed the procedures described in the instruction.

**Q.** How did the “Inhibitory rates of uric acid transport, ±SD (%)” value (hURAT1) turn out when CCc1nc2ccccn2c1C(=O)c1cc(Br)c(O)c(C#N)c1 [Compound 74, 3-bromo-5-(2-ethylimidazo[1,2-a]pyridine-3-carbonyl)-2-hydroxybenzonitrile hydrogen chloride] was run?
**A.** Its value is 62.75 ± 5.73%.

**Q.** And the “uric acid excretion increased compared with the model group” value (hyperuricemia mice; increase over model group)?
**A.** The value was “about 46.77%”.

**Q.** And the “Changes of uric acid excretion (compared with model group, %)” value (hyperuricemia mice; model group set to 100%)?
**A.** The value was 146.77%.

**Q.** And the “Uric acid in urine for 24 h, ±SD” value (hyperuricemia mice; seven days, 6 mice)?
**A.** The value was 15.69 ± 1.53 mmol.
